5 molecules from patent US20220040230A1, “COMPOSITIONS AND METHODS FOR IMMUNOTHERAPIES” (The Regents of the University of California, priority 2018, published 2022) can be followed below.

The subject of series [1] is OSCCs. The experiment in a line: Chemotherapy-mediated cell death of OSCCs. In kind it is cell-based, human.
Series [2] concerns OSCSCs. The experiment in a line: Chemotherapy-mediated cell death of OSCSCs. The format is cell-based, human.
Series [3] has as its system MP2. The experiment in a line: Surface expression on MP2 by flow cytometry. The format is cell-based, human. Conditions: 24 h. The procedure: MP2 cells were left untreated or treated with rhTNF-α (20 ng/mL), rhIFN-γ (200 U/mL) or the combination of rhTNF-α (20 ng/mL) and rhIFN-γ (200 U/mL) for 24 h. Afterwards, the cells were detached and the surface expression of CD44, CD54, MHC-class I and B7H1 were assessed using PE conjugated antibodies followed by flow cytometric analysis. Isotype controls were used as controls (FIG. 14A). MP2 and Capan cells were treated as described in FIG. 14A, and were detached from the tissue culture plates, labeled with ^51Cr and used in a standard 4-hour ^51Cr release assay using IL-2 (1000 U/mL) treated NK cells. Pre-treatment of NK cells with IL-2 (1000 U/ml) were carried out for 18-24 hours. Percent cytotoxicity was determined at different effector to target ratio and the lytic units 30/10^6 cells were determined using inverse number of NK cells required to lyse 30% of the tumor cells×100 (FIG. 14B).
Staining was performed by labeling the cells with antibodies as described previously. Briefly, the cells were washed twice with ice-cold PBS/1% BSA. Predetermined optimal concentrations of specific human flow cytometric antibodies were added to 1×10^4 cells in 50 μl of cold-PBS/1% BSA and cells were incubated on ice for 30 min. […] Flow cytometry analysis was performed using Beckman Coulter Epics XL cytometer (Brea, Calif.) and results were analyzed in FlowJo vX software (Ashland, Oreg.).

The subject of series [4] is NK-supernatant differentiated MP2 tumors. The experiment in a line: Propidium iodide cell death assay, NK-supernatant differentiated MP2. The format is cell-based, human. The procedure:
(§1) P-values of <0.05 were obtained for differences between MP2 vs. PL12 and Capan at the concentrations of 10 nM, 200 nM, 600 nM, 1000 nM and […] of Paclitaxel (n=2 per each experimental condition) (FIG. 25A).
Differentiation of MP2 tumors was conducted as described previously. NK cells were treated with a combination of anti-CD16mAb (3 μg/mL) and IL-2 (1,000 U/mL) for 18 hours before supernatants were removed and used for differentiation experiments. The amounts of IFN-γ produced by activated NK cells were assess with IFN-γ ELISA (Biolegend, CA, USA). MP2 cells were differentiated with gradual daily addition of increasing amounts of NK cell supernatants (of corresponding treatments). On average, to induce differentiation, a total of 3,500 pg of IFN-γ containing supernatants were added for 4 days to induce differentiation and resistance of MP2 tumor cells to NK cell-mediated cytotoxicity. Afterwards, target cells were washed with 1×PBS, detached and used for experiments.

Series [5] deals with PL12. In words: Propidium iodide cell death assay, PL12.
The subject of series [6] is Capan. The experiment in a line: Propidium iodide cell death assay, Capan.
Series [7] concerns MP2. In words: Propidium iodide cell death assay, MP2. The settings on record: NAC (20 nM) 24 hours before paclitaxel. The format is cell-based, human. The procedure: as §1
For series [8], the system named is MP2. In words: 4-hour 51Cr release cytotoxicity / ADCC assay against MP2. The format is cell-based, human. The settings on record: IL-2 treated NK cells; tumor cells treated 24 h. On the procedure:
The target cells (5×10^5) were labeled with 50 μCi ^51Cr (Perkin Elmer, Santa Clara, Calif.) and chromated for 1 hour. Following incubation, target cells were washed once to remove excess unbound ^51Cr. […] Following incubation, target cells were washed again to remove excess unbound antibody and ^51Cr. Labeled target cells were culture with effector cells and the cytotoxicity against target cells were assessed using ^51Cr release cytotoxicity assay.
^51Cr Release Cytotoxicity Assay ^51Cr was purchased from Perkin Elmer (Santa Clara, Calif.). Standard ^51Cr release cytotoxicity assays were used to determine NK cell cytotoxic function in the experimental cultures. […] After a 4-hour incubation period, the supernatants were harvested from each sample and counted for released radioactivity using the gamma counter. Total (containing ^51Cr labeled target cells) and spontaneous (supernatants of target cells alone) release values were measured and used to calculate the percentage specific cytotoxicity. The percentage specific cytotoxicity was calculated using the following formula: […]
Lu30/10^6 is calculated by using the inverse of the number of effector cells needed to lyse 30% of target cells×100.
The ^51Cr release assay was performed as described previously. […] The percentage specific cytotoxicity was calculated using the following formula: […]

Setting [9] is: NAC (20 nM) 24 hours before paclitaxel.

Consider `N.N.[Cl][Pt][Cl]` [CDDP, cis-dichlorodiammineplatinum], for which the “cell death of patient-derived differentiated OSCCs” value in series [1] is “higher cell death”. The “cell death of stem-like/poorly differentiated OSCSCs” value in series [2] is “minimal effects”.

Take “rhIFN-γ: Recombinant human IFN-γ from Biolegend”: the “surface expression of B7H1 on MP2” value in series [3] is recorded as “upregulate B7H1”. The “surface expression of CD54, MHC-class I, B7H1 and CD44 on MP2” value in series [3] (rhTNF-α 20 ng/mL, rhIFN-γ 200 U/mL) was “increase surface expression of CD54 and MHC-class I”.

For the molecule `CC(=O)O[C@H]1C(=O)[C@@]2(C)[C@H]([C@H](OC(=O)c3ccccc3)[C@]3(O)C[C@H](OC(=O)[C@H](O)[C@@H](NC(=O)c4ccccc4)c4ccccc4)C(C)=C1C3(C)C)[C@]1(OC(C)=O)CO[C@@H]1C[C@@H]2O` [paclitaxel], in series [4], the “paclitaxel mediated cell death of NK-supernatant differentiated MP2” value was “susceptibility to paclitaxel”. Besides, the “paclitaxel mediated cell death of PL12” value in series [5] (compared with MP2) is listed as “higher levels of cell death”. Moreover, in series [6] (compared with MP2), the “paclitaxel mediated cell death of Capan” value is reported as “higher levels of cell death”. For the same molecule, the “cell death of patient-derived differentiated OSCCs” value in series [1] is recorded as “higher cell death”. For the same molecule, in series [2], the “cell death of stem-like/poorly differentiated OSCSCs” value is “minimal effects”.

For the molecule `CC(=O)N[C@@H](CS)C(=O)O` [NAC, N-Acetyl Cysteine], the “effect of NAC on cell death of NK-supernatant differentiated MP2” value in series [4] (setting [9]) was “increased cell death”. The “effect of NAC on paclitaxel mediated cell death of PL12” value in series [5] (setting [9]) is “increased paclitaxel mediated cell death”. For the same molecule, the “effect of NAC on paclitaxel mediated cell death of MP2” value in series [7] is “increased paclitaxel mediated cell death”. Besides, the “effect of NAC on paclitaxel mediated cell death of Capan” value in series [6] (setting [9]) is recorded as “increased paclitaxel mediated cell death”.

B1: rhIFN-γ: Recombinant human IFN-γ from Biolegend (protein, UniProt P01579 24-161, looked up)
Interferon gamma: QDPYVKEAENLKKYFNAGHSDVADNGTLFLGILKNWKEESDRKIMQSQIVSFYFKLFKNFKDDQSIQKSVETIKEDMNVKFFNSNKKKRDDFEKLTNYSVTDLNVQRKAIHELIQVMAELSPAAKTGKRKRSQMLFRG
As to B1, the “resistance of MP2 against NK cell mediated cytotoxicity” value in series [8] was “significant resistance”.
